Laboratory results: patent US7053047B2, “Cyclic pentapeptides and their preparation” (Purzer Pharmaceutical Co., Ltd., priority 2002, dated 2006)
Marks after values point to notes of the source that are not given here.

Columns and labels:
thrombus = experiment: Thrombolytic effect in thrombolysis rat model (thrombus on bolt in arteriovenous polyethylene tube); format: in vivo, Wistar rat; settings: for m, thrombus mass reduction: injected in 6 min, bolt weighed after 1 h, n = 8; for thrombolytic effect / potency (comparison in words): thrombolysis rat model, Tables 1 and 2
Experimental: The thrombolytic effect was evaluated by thrombolysis rat model.
0.1 ml Wistar rat blood was poured into a glass tube (length, 15 mm; external diameter, 5.0 mm; internal diameter, 2.5 mm) which was fixed vertically and the bottom was sealed with a rubber stopper. A stainless steel bolt was inserted quickly, the bolt diameter was 0.2 mm and the length was 12 mm. 15 min later, the bolt containing thrombus was taken out from the glass tube and weighed exactly.
Male Wistar rat weighing 220 g–280 g were anesthetized with pentobarbital sodium (80 mg/kg, i.p). The right arteria carotis communis and the left vena jugulars externa were separated. The bolt containing thrombus was put in the polyethylene tube and one end was inserted into the left vena jugulars externa. 50 IU/kg of heparin sodium was injected as anticoagulant, and the other tube end was inserted into the right arteria carotis communis. At this time the blood flowed from the right arteria carotis to the left vena jugulars externa via the polyethylene tube. Then normal saline solution, UK, GP6A (SEQ ID NO: 26), P6A (SEQ ID NO: 25) and KP6A (SEQ ID NO: 27) were injected in 6 min. The bolt was taken out and weighed after 1 h. The data are listed in Table 1 and Table 2, statistical data analysis was carried out by using student's t test, p<0.05 was considered significant.

[1] = system: coronary artery thrombosis; experiment: Thrombolysis with tissue plasminogene activator in dogs with coronary artery thrombosis; format: in vivo; settings: injected i.v. together with tissue plasminogene activator
Text: Peptide 6A is a degradation of fibrinogen β chain analogue which has been known to increase coronary artery and femoral artery blood flow. In 1978(1), peptide 6A was first isolated and purified from the β chain of human fibrinogen by Belew et al.(2). The composition of peptide 6A was confirmed as Ala-Arg-Pro-Ala-Lys (SEQ ID NO: 25). […] In 1997, the inventors prepared peptide 6A and its analogues by solution method and observed that these peptides have good potency for relaxing vascula, lowering blood pressure and anti-thrombosis. The synthetic techniques and functions of these compounds have been described in CN Patent No. 1146458.

[2] = system: coronary artery and femoral artery blood flow; settings: dogs; cited from earlier work

Substance | m, thrombus mass reduction (thrombus; dosage 5 μmol/kg) | m, thrombus mass reduction (thrombus; dosage 10 μmol/kg) | m, thrombus mass reduction (thrombus; dosage 20 μmol/kg) | thrombolytic effect compared with UK (thrombus; high concentration (>10 μmol) versus UK (2000 IU/Kg)) | thrombolytic effect / potency (comparison in words) (thrombus) | parameters of thrombolysis [1] | coronary artery and femoral artery blood flow [2]
Cyclo(Ala-Arg-Pro-Ala-Lys) (ARPAK; cyclic; Cyclo P6A) [CycloP6A] | 10.62 ± 3.15^a mg |  |  |  |  |  | 
Cyclo(Gly-Arg-Pro-Ala-Lys) (GRPAK; cyclic; Cyclo GP6A) [CycloGP6A] | 8.35 ± 2.76^a mg | 17.31 ± 4.29^a mg | 18.38 ± 2.08^a,b,c mg | even better than UK | much more thrombolytic potency than the others |  | 
Cyclo(Lys-Arg-Pro-Ala-Lys) (KRPAK; cyclic; Cyclo KP6A) [CycloKP6A] | 6.13 ± 2.31^a mg |  |  |  |  |  | 
H-Ala-Arg-Pro-Ala-LysOH (H-ARPAK-OH) [Compound P6A] | 6.07 ± 2.14^a mg |  |  |  |  | no additional benefit on the parameters of thrombolysis | increases coronary artery and femoral artery blood flow
H-Gly-Arg-Pro-Ala-LysOH (GRPAK; GP6A) | 9.31 ± 3.94^a mg | 13.17 ± 4.13^a mg | 16.81 ± 544^a,b mg |  | much more thrombolytic potency than the others |  | 
H-Lys-Arg-Pro-Ala-LysOH (KRPAK; KP6A) | 0.28 ± 2.13 mg |  |  |  |  |  | 
